Read-outs that look alike come from different tables or passages of the source.

Data set [1] deals with EpCAM. Nature of the data set: Immunofluorescence staining of paraffin embedded xenograft tumour sections. On the set-up: species or system human; key to Quantification of anti-EpCAM staining by immunofluorescence: ‘−’ no staining; ‘+’ faint incomplete staining in >10% of cells; ‘++’ moderate complete membrance staining; ‘+++’ strong complete membrance staining. The method, then: (§1) A: Immunofluorescence staining of breast cancer (T47D, MCF7 and MDA-MB-231), colon cancer (HT-29) and glioblastoma (U118MG) xenograft tumours by EpCAM aptamers, DT3 and 23, control aptamer and the anti-EpCAM antibody, 323/A3 (Blue: nuclei; Red: EpCAM positive staining). B: Immunohistochemistry was performed with the anti-EpCAM antibody BerEP4, and all tumours were evaluated by haematoxylin and eosin staining for morphological confirmation. Aptamer staining was performed for 15 min at 37° C., while 323/A3 staining was performed at 4° C. overnight and BerEP4 was performed at room temperature for 20 min. All fluorescent images were taken at 60×, while light microscopy images were taken at 20×. Images are representative of at least three separate experiments. Scale bar: 50 μm.
(§2) The cell lines of human origin used in this study were purchased from American type Culture Collection. They were glioblastoma U118-MG; breast carcinoma MCF-7, MDA-MB-231 and T47D; and colorectal adenocarcinoma HT-29. Cells were grown and maintained in culture with Dulbecco's Modified Eagle medium (DMEM) (Invitrogen, Victoria, Australia) supplemented with 10% fetal calf serum (MCF-7, T47D, HT-29, and U118-MG), or Roswell Park Memorial Institute 1640 (RPMI 1640) (Invitrogen) with 10% fetal calf serum (MDA-MB-231). Cells were maintained at 37 ^CC in a humidified atmosphere containing 5% CO2. For xenograft studies, single cell suspensions were harvested by trypsinisation, washed with PBS and resuspended in 0.1 mL of PBS for implantation in BALB/c-Foxn1 ^nu female mice. Once tumours had reached approximately […], they were excised and fixed in 10% neutral buffered formalin prior to processing and embedding. All animal procedures were approved by Deakin University Animal Welfare Committee, and in accordance with the Australian Code of Practice for the Care and Use of Animals for Scientific Purposes.
(§3) Sections from each of the xenograft tumours were cut at 4 μm onto polylysine coated slides prior to deparaffinisation with Histoclear and rehydration through graded ethanol. Heat induced antigen retrieval was performed in a microwave oven using Tris-EDTA buffer (10 mM Tris, 1 mM EDTA, 0.05% Tween 20, pH 9.0) for 20 min and the slides were allowed to cool prior to blocking with 0.1 mg/mL tRNA, 0.1 mg/mL salmon sperm DNA and 1 mg/mL bovine serum albumin (BSA) in phosphate buffered saline (PBS) for 20 min. Following the blocking step, slides were washed in PBS containing 0.1% Tween 20 twice for 2 min prior to incubation with either aptamer or antibody. Aptamers were prepared as previously described (Shigdar S et al, supra). Briefly, aptamers were heated to 85° C. for 5 min, allowed to cool to room temperature for 10 min and then heated at 37° C. for 15 min. Slides were incubated with aptamers at 100 nM concentration in a solution of PBS containing 5 mM MgCl2, 0.1 mg/mL tRNA, 1 mg/mL BSA, 10% dextran sulphate and 500 μg/mL heparin for 15 min at 37° C. The slides were then washed three times for 5 min each prior to incubation with Bisbenzimide Hoechst 33342 (3 μg/mL) for 10 min. Slides were then mounted using VECTASHIELD and coverslipped prior to visualisation using a Fluoview FV10i laser scanning confocal microscope. All images used for direct comparison were taken with identical exposure parameters and are presented without any digital contrast alteration or background subtraction. Antibody staining was performed using the anti-EpCAM antibody 323/A3 (ab8601, Abcam). […]

The target in data set [2] is T1, native EpCAM expressed on the cell surface (Homo sapiens, UniProt P16422).
T1 construct: host or cells: T47D, MCF7, MDA-MB-231, HT-29 (EpCAM-positive); U118MG (EpCAM-negative control)
T1 sequence (P16422 24-314): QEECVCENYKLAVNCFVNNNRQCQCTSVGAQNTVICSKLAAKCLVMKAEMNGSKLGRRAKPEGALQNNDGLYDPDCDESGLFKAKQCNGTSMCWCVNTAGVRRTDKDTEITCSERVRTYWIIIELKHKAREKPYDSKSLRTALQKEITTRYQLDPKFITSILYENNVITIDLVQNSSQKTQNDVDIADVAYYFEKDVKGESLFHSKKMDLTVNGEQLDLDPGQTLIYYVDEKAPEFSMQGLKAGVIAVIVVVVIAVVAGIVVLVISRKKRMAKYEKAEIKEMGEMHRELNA
Nature of the data set: Binding affinities of EpCAM aptamers by flow cytometry. The note with it: read-out: KD (±SEM). The method, then:
(§4) Cells were harvested at 80% confluence with trypsin digestion and resuspended in washing buffer (DPBS with 5 mM MgCl2) and enumerated. Following centrifugation (1000×g for 5 min), the cell pellet was resuspended in assay buffer (DPBS supplemented with 5 mM MgCl2, 0.1 mg/ml tRNA, 0.1 mg/ml salmon sperm DNA, 0.2% [w/v] sodium azide, and 5% FCS) and diluted to 1×10^6/mL. The blocking step was carried out at 4′C. The binding of the aptamers was carried out at 37′C for 30 min or 4′C for 1 h, with the final concentration of magnesium chloride being 2.5 mM in all binding assays.
(§5) The equilibrium dissociation constant (K′d) of successful 2′-fluoropyrimidine RNA aptamer species to native EpCAM expressed on the cell surface was determined using flow cytometry with EpCAM-positive and -negative cell lines and a negative control (2-O-methyl-pyrimidine) aptamer (5′-DY647-mGCmGACUmGmGUUmACCCmGmGUCmGdT-3′) (SEQ ID NO:13). Kato III or U118MG cells (5×10^5) were first incubated with assay buffer followed by two washes with binding buffer prior to incubation with serial concentrations (approximately 10-fold above and below the apparent K′d) of FITC-labelled aptamer in a 100 μL assay buffer for 1 h on ice. The cells were washed three times, resuspended in 150 μL assay buffer containing 2.5 mM MgCl2 and subjected to flow cytometric analyses. The FITC-labelled unselected library was used as another negative control. The mean fluorescence intensity (MFI) of the unselected library was subtracted from that of the aptamer-target cell to generate the MFI of specific binding. The K′d for each aptamer was determined by Scatchard analysis according to the equation: [Bound aptamer]/[aptamer]=−(1/KD)×[bound aptamer]+([T]tol/KD) where [T]tot represents the total target concentration. Design and Generation of EpCAM Aptamer-siRNA Chimera
(§6) The binding affinities of both aptamers have been characterised against all five cell lines used in this study by flow cytometry, and the results are shown in Table 1.

Data set [3] concerns native EpCAM expressed on the cell surface. The data set is described as above. Also on record: species or system human. The note with it: U118MG cells (EpCAM negative); read-out: KD (±SEM). The method, then:
as §4, §5, §6

The target of data set [4] is T2, EpCAM (Homo sapiens, UniProt P16422).
T2 sequence (P16422 24-314): T1 sequence (P16422 24-314)
Nature of the data set: Immunofluorescence staining of paraffin embedded xenograft tumour sections. Also on record: from tissue; host or cells: xenograft tumours of T47D, MCF7, MDA-MB-231, HT-29 and U118MG cells grown in BALB/c-Foxn1 nu mice, formalin-fixed and paraffin-embedded; key to Quantification of anti-EpCAM staining by immunofluorescence: ‘−’ no staining; ‘+’ faint incomplete staining in >10% of cells; ‘++’ moderate complete membrance staining; ‘+++’ strong complete membrance staining. The method, then:
as §1, §2
as §3, with “Abcam). Slides were washed and blocked following the same protocol as previously described prior to antibody staining. The antibody was prepared at a concentration of 10 μg/mL and the slides were incubated overnight at 4° C. Slides were then washed three times for 5 min followed by incubation with a goat-anti-mouse IgG AlexaFluor 647 conjugate (Invitrogen) at a concentration of 10 μg/mL for 2 h prior to washing, staining with Bisbenzimide Hoechst 33342, and coverslipping.” for “Abcam).”

Data set [5] has as its target T2, EpCAM. The settings on record: patients with metastatic breast cancer; cited from earlier work.

For the substance “5′-GCGACUGGUUACCCGGUCG-3′ (RNA aptamer, modifications not given here, further chemistry not given here) [DT3]”, the “Quantification of anti-EpCAM staining by immunofluorescence” value was “−” with EpCAM [1] (U118MG xenograft); “−” with EpCAM [4] (HT-29 xenograft); “+ (‘+’ faint incomplete staining in >10% of cells)” in the data set with EpCAM [4] (MCF7 xenograft); “+ (‘+’ faint incomplete staining in >10% of cells)” in the data set with EpCAM [4] (MDA-MB-231 xenograft); “++” with EpCAM [4] (T47D xenograft). For the same substance, the “staining of U118MG xenograft (in words)” value in the data set on EpCAM [1] (U118MG xenograft that does not express EpCAM) is reported as “no staining detectable”. For the same substance, the Kd is 158 ± 70 nM in data set [2] (HT29 cells); 50 ± 18.5 nM in data set [2] (MCF7 cells); 98.9 ± 37.8 nM in data set [2] (MDA-MB-231 cells); 74.2 ± 26.2 nM in data set [2] (T47D cells); above 1000 nM in data set [3]. For the same substance, the “staining of HT-29 xenograft sections (in words)” value with EpCAM [4] (HT-29 colorectal cancer xenograft) is on record as “did not show any staining”. In the data set with EpCAM [4] (MDA-MB-231 xenograft, low EpCAM expression), the “detection of EpCAM in MDA-MB-231 xenograft tumour (in words)” value is “successfully detect EpCAM”. Also, the “staining of human breast cancer xenografts (in words)” value with EpCAM [4] (T47D, MCF7 and MDA-MB-231 xenografts, 100 nM, 15 min, 37° C., dextran sulphate and heparin) is reported as “highly sensitive staining”.

As for “adecatumumab: fully humanised monoclonal anti-EpCAM antibody”, the clinical response entry in the data set with EpCAM [5] was “dose-dependent and target dependent clinical responses”.

Usually Kd stands for the concentration at which binding is half-saturated.

These data come from patent publication US9567586B2, “EpCAM aptamer for detection of cancer stem cells” (DEAKIN UNIVERSITY, priority 2012, dated 2017).
